According to PMC11189555, “Aryl amino acetamides prevent Plasmodium falciparum ring development via targeting the lipid-transfer protein PfSTART1” (Nature Communications, 2024):
Like-named read-outs stand apart in the source and are kept apart here.

What was measured:
[1] = test system: 3D7 P. falciparum parasites; assay: Growth inhibition assay (72 h, LDH activity); assay type: cell-based, Plasmodium falciparum; settings: for EC50: Plasmodium falciparum
Experimental: (§1) Parasite growth assays with inhibitory compounds were performed as per[11] and are fully described in the Supplementary Information. […]
(§2) Growth inhibition assays. Synchronised ring-stage parasites (0.3-0.6% parasitemia, 2% haematocrit) were grown for 72 h in a serial-dilution of the compound under […]
(§3) and compound 4. Note that M-833 was first purchased from MolPort (MolPort -002-267-916) then made in-house at WEHI: the differences observed in EC50s across experiments are attributed to the different batches of M -833. For some experiments, 0, 0.25 or 2.5 mM of glucosamine (GlcN) was also added. Experiments were set up in technical duplicates or triplicates. Following a freeze -thaw cycle, lactate dehydrogenase (LDH) activity was assessed as an indicator of parasite growt h 5. 30 μL of parasite culture was incubated for 30 min in the dark with 75 μL Malstat mixture (0.1 M Tris pH 9.0, 20 g/L lactic acid, pH 7.5, 0.2% Triton-X100, 0.5 g/L acetylpyridine adenine dinucleotide (APAD, Sigma), 200 μg/mL nitroblue tetrazolium (NBT; Sigma), 1 μg/mL phenozine ethosulfate (PES; Sigma)). Absorbance was then measured at 650 nm, transformed using the formula below, plotted against the logarithm of the concentrations, and a non-linear regression (log(inhibitor) vs. response, variable slope) was calculated using GraphPad Prism to assess the half-inhibitory […]
(§4) Growth inhibition % = (1 − average(sample)− average(uRBC)) ∗ 100 […]
(§5) The DMSO samples were also used to assess growth of parasite in the presence of 0.25 and 2.5 mM GlcN (normalised by DMSO in 0 mM GlcN). […]

[2] = test system: PopE-F10 M-833 resistant clone (PfSTART1 N330K); assay: Growth inhibition assay (72 h, LDH activity); assay type: cell-based, Plasmodium falciparum
Experimental: The drug was then removed, and parasites were allowed to recover. Another cycle of drug treatment (3 μM M-833) was then resumed. The resistant lines were cloned out by limiting dilution (diluting the culture into a 96-well plate to achieve an average of ~0.3 parasites per well), prior to growth inhibition assays and genomic DNA (gDNA) extraction (DNeasy Blood and Tissue kit (Qiagen)[18].
as §1, §2, §3, §4, §5

Structure (SMILES): CC(C)(Oc1ccc(Cl)c(S(=O)(=O)N2CCOCC2)c1)C(=O)Nc1ccc(F)c(Cl)c1 [compound 3]
- (av-uRBC) / (DMSO-uRBC) x100 ([1]; 3D7, conc. 3.04832 nM, Biological replicate 1 (2021-10-25)): 98.9546
- (av-uRBC) / (DMSO-uRBC) x100 ([1]; 3D7, conc. 3.04832 nM, Biological replicate 2 (2021-11-03)): 99.5733
- (av-uRBC) / (DMSO-uRBC) x100 ([1]; 3D7, conc. 3.04832 nM, Biological replicate 3 (2021-11-11)): 55.9066
- (av-uRBC) / (DMSO-uRBC) x100 ([1]; 3D7, conc. 9.14495 nM, Biological replicate 1 (2021-10-25)): 81.8447
- (av-uRBC) / (DMSO-uRBC) x100 ([1]; 3D7, conc. 9.14495 nM, Biological replicate 2 (2021-11-03)): 87.421
- (av-uRBC) / (DMSO-uRBC) x100 ([1]; 3D7, conc. 9.14495 nM, Biological replicate 3 (2021-11-11)): 38.3092
- (av-uRBC) / (DMSO-uRBC) x100 ([1]; 3D7, conc. 27.4348 nM, Biological replicate 1 (2021-10-25)): 30.9131
- (av-uRBC) / (DMSO-uRBC) x100 ([1]; 3D7, conc. 27.4348 nM, Biological replicate 2 (2021-11-03)): 28.899
- (av-uRBC) / (DMSO-uRBC) x100 ([1]; 3D7, conc. 27.4348 nM, Biological replicate 3 (2021-11-11)): 16.2848
- (av-uRBC) / (DMSO-uRBC) x100 ([1]; 3D7, conc. 82.3045 nM, Biological replicate 1 (2021-10-25)): 11.7409
- (av-uRBC) / (DMSO-uRBC) x100 ([1]; 3D7, conc. 82.3045 nM, Biological replicate 2 (2021-11-03)): 11.9543
- (av-uRBC) / (DMSO-uRBC) x100 ([1]; 3D7, conc. 82.3045 nM, Biological replicate 3 (2021-11-11)): 7.809
- (av-uRBC) / (DMSO-uRBC) x100 ([1]; 3D7, conc. 246.914 nM, Biological replicate 1 (2021-10-25)): 8.8892
- (av-uRBC) / (DMSO-uRBC) x100 ([1]; 3D7, conc. 246.914 nM, Biological replicate 2 (2021-11-03)): 10.72
- (av-uRBC) / (DMSO-uRBC) x100 ([1]; 3D7, conc. 246.914 nM, Biological replicate 3 (2021-11-11)): 6.2069
- (av-uRBC) / (DMSO-uRBC) x100 ([1]; 3D7, conc. 740.741 nM, Biological replicate 1 (2021-10-25)): 8.477
- (av-uRBC) / (DMSO-uRBC) x100 ([1]; 3D7, conc. 740.741 nM, Biological replicate 2 (2021-11-03)): 10.3467
- (av-uRBC) / (DMSO-uRBC) x100 ([1]; 3D7, conc. 740.741 nM, Biological replicate 3 (2021-11-11)): 4.271
- (av-uRBC) / (DMSO-uRBC) x100 ([1]; 3D7, conc. 2222.22 nM, Biological replicate 1 (2021-10-25)): 8.256
- (av-uRBC) / (DMSO-uRBC) x100 ([1]; 3D7, conc. 2222.22 nM, Biological replicate 2 (2021-11-03)): 10.0343
- (av-uRBC) / (DMSO-uRBC) x100 ([1]; 3D7, conc. 2222.22 nM, Biological replicate 3 (2021-11-11)): 3.637
- (av-uRBC) / (DMSO-uRBC) x100 ([1]; 3D7, conc. 6666.67 nM, Biological replicate 1 (2021-10-25)): 8.6332
- (av-uRBC) / (DMSO-uRBC) x100 ([1]; 3D7, conc. 6666.67 nM, Biological replicate 2 (2021-11-03)): 8.244
- (av-uRBC) / (DMSO-uRBC) x100 ([1]; 3D7, conc. 6666.67 nM, Biological replicate 3 (2021-11-11)): 2.725
- (av-uRBC) / (DMSO-uRBC) x100 ([1]; 3D7, conc. 20000 nM, Biological replicate 1 (2021-10-25)): 7.467
- (av-uRBC) / (DMSO-uRBC) x100 ([1]; 3D7, conc. 20000 nM, Biological replicate 2 (2021-11-03)): 5.95
- (av-uRBC) / (DMSO-uRBC) x100 ([1]; 3D7, conc. 20000 nM, Biological replicate 3 (2021-11-11)): -1.791
- improvement in antiparasitic activity relative to the activity of M-833 ([1]; EC50 based): 10 fold
- EC50 ([1]; 3D7, 72 h, Supplementary Table 1, 3D7, 72 h, read-out: EC50): 16 nM
- EC50 ([1]; 3D7, Fig 4A, 3D7 parasites, read-out: Pf 3D7 EC50 (SD)): 150 nM
- EC50 ([1]; 3D7, text on structure activity relationship (Fig 4A), read-out: EC50, antiparasitic activity): 120 nM
- EC50 ([2]; Plasmodium falciparum, 72 h, Supplementary Table 1, PopE-F10 (N330K)): 3250 nM
- resistance of the line compared with 3D7 ([2]; PopE-F10 (N330K), Fig 4B): highly resistant
- (av-uRBC) / (DMSO-uRBC) x100 ([2]; PopE-F10, 3.04832 nM, biological replicate 1): 115.115
- (av-uRBC) / (DMSO-uRBC) x100 ([2]; PopE-F10, 3.04832 nM, biological replicate 2): 108.442
- (av-uRBC) / (DMSO-uRBC) x100 ([2]; PopE-F10, 3.04832 nM, biological replicate 3): 119.048
- (av-uRBC) / (DMSO-uRBC) x100 ([2]; PopE-F10, 9.14495 nM, biological replicate 1): 115.06
- (av-uRBC) / (DMSO-uRBC) x100 ([2]; PopE-F10, 9.14495 nM, biological replicate 2): 109.174
- (av-uRBC) / (DMSO-uRBC) x100 ([2]; PopE-F10, 9.14495 nM, biological replicate 3): 119.013
- (av-uRBC) / (DMSO-uRBC) x100 ([2]; PopE-F10, 27.4348 nM, biological replicate 1): 115.16
- (av-uRBC) / (DMSO-uRBC) x100 ([2]; PopE-F10, 27.4348 nM, biological replicate 2): 107.726
- (av-uRBC) / (DMSO-uRBC) x100 ([2]; PopE-F10, 27.4348 nM, biological replicate 3): 110.78
- (av-uRBC) / (DMSO-uRBC) x100 ([2]; PopE-F10, 82.3045 nM, biological replicate 1): 115.437
- (av-uRBC) / (DMSO-uRBC) x100 ([2]; PopE-F10, 82.3045 nM, biological replicate 2): 107.232
- (av-uRBC) / (DMSO-uRBC) x100 ([2]; PopE-F10, 82.3045 nM, biological replicate 3): 123.007
- (av-uRBC) / (DMSO-uRBC) x100 ([2]; PopE-F10, 246.914 nM, biological replicate 1): 112.345
- (av-uRBC) / (DMSO-uRBC) x100 ([2]; PopE-F10, 246.914 nM, biological replicate 2): 106.543
- (av-uRBC) / (DMSO-uRBC) x100 ([2]; PopE-F10, 246.914 nM, biological replicate 3): 116.449
- (av-uRBC) / (DMSO-uRBC) x100 ([2]; PopE-F10, 740.741 nM, biological replicate 1): 107.602
- (av-uRBC) / (DMSO-uRBC) x100 ([2]; PopE-F10, 740.741 nM, biological replicate 2): 102.914
- (av-uRBC) / (DMSO-uRBC) x100 ([2]; PopE-F10, 740.741 nM, biological replicate 3): 98.1859
- (av-uRBC) / (DMSO-uRBC) x100 ([2]; PopE-F10, 2222.22 nM, biological replicate 1): 85.8267
- (av-uRBC) / (DMSO-uRBC) x100 ([2]; PopE-F10, 2222.22 nM, biological replicate 2): 84.9625
- (av-uRBC) / (DMSO-uRBC) x100 ([2]; PopE-F10, 2222.22 nM, biological replicate 3): 59.2883
- (av-uRBC) / (DMSO-uRBC) x100 ([2]; PopE-F10, 6666.67 nM, biological replicate 1): 37.9433
- (av-uRBC) / (DMSO-uRBC) x100 ([2]; PopE-F10, 6666.67 nM, biological replicate 2): 28.6269
- (av-uRBC) / (DMSO-uRBC) x100 ([2]; PopE-F10, 6666.67 nM, biological replicate 3): 13.3438
- (av-uRBC) / (DMSO-uRBC) x100 ([2]; PopE-F10, 20000 nM, biological replicate 1): 11.6135
- (av-uRBC) / (DMSO-uRBC) x100 ([2]; PopE-F10, 20000 nM, biological replicate 2): 7.135
- (av-uRBC) / (DMSO-uRBC) x100 ([2]; PopE-F10, 20000 nM, biological replicate 3): 4.744
- Fold change compared to 3D7 ([2]; Supplementary Table 1, EC50 on PopE-F10 vs 3D7): 203 fold
